Measured values reported in patent publication US20100158808A1, “Altered Activity of Toll-Like Receptors” (priority 2003, published 2010).

Experiments:
Format in all cases: in vivo
[1] = test system: mice; experiment: Experimental shock model (SIRS), D-galactosamine, i.p. injection; conditions: for Death / SIRS in shock model: TLR4-mutant mice; for Death / SIRS in shock model / Death in shock model: i.p. with D-galactosamine; for Death in shock model: TLR4 wild-type mice
Method: Experimental shock model. Age- and sex-matched mice were injected with 5 mg of HS, 5 μg of LPS, 5 μg of Limulus anti-LPS factor, 5 mg of chondroitin sulfate, 200 U (−5 mg) heparin, 150 μg of CpG DNA, 1.5 U of elastase, or PBS mixed with 20 mg of D-galactosamine in a total volume of 500 μl of PBS by i.p. injection as previously described (Franks et al. (1991) Infect. Immun. 59:2609). Concentrations of HS and elastase were calculated by weight of lyophilized powder, and the doses used were near the LD50 based on dose-response experiments. In some experiments, the agonist was mixed with 5 or 20 μg of Limulus anti-LPS factor before injection. For some injections, enzymes were boiled at 100° C. for 60 minutes and vortexed vigorously, or preincubated with elastase inhibitor-1 for 4 hours at room temperature and then mixed with D-galactosamine before injection. Mice were monitored every hour for 48 hours and then euthanized.
During sepsis, Gram-negative bacteria shed LPS, which activates TLR4 on cells that then release inflammatory cytokines mediating systemic inflammation and death (Beutler (2000) Curr. Opin. Immunol. 12:20). To determine whether soluble HS can induce a model of systemic inflammatory response syndrome (SIRS) via activation of TLR4 in mice, HS was administered by i.p. injection to TLR4 wild type and mutant mice. This mouse model system has been used to study shock and a sepsis-like syndrome in response to microbial toxins (Galanos et al. (1979) Proc. Natl. Acad. Sci. USA 76:5939). […] Moreover, the observed responses were not due to contamination of HS by LPS, since the HS used was not contaminated with LPS.

[2] = test system: CD86; experiment: CD86 expression in spleen after injection into the spleens of mice; conditions: for Expression of CD86 in the spleen: injection into spleen of mice
Method: Surgical Procedures and Immunohistochemistry. Mice were anesthetized and the spleen was directly visualized through an incision in the lateral abdominal wall. Particular substances in […] of PBS were injected into the spleen. Spleens were harvested after 12 hours and sections were frozen in liquid nitrogen. Tissue sections were prepared and stained as described in (Dempsey et al. supra) with the following modifications. Secondary detection antibodies were diluted in M.O.M. diluent (Vector Laboratories, Burlingame, Calif.) and preabsorbed with mouse serum (Jackson ImmunoResearch Laboratories, West Grove, Pa.). Fluorescent images were converted to grayscale using SPOT software (Diagnostic Instruments, Sterling Heights, Mich.).
To determine whether elastase activity on ECM activates TLR4 responses in living tissues, elastase was injected into the spleens of mice. Such treatment typically causes rapid shedding of HS proteoglycans from the tissue, especially from blood vessels (Johnson et al. (2004) J. Immunol. (Cutting Edge) 172:20-24). The spleens were removed and examined for expression of CD86, a protein expressed in response to TLR4 signaling (Kaisho and Akira (2002) Biochim. Biophys. Acta 1589:1-13). […] In contrast, the expression of CD86 observed in leukocytes detached from ECM and stimulated with LPS or HS is considerably heightened (Johnson et al. supra). […] The changes in CD86 expression induced by elastase required TLR4, as the increase in CD86 was not observed when elastase was injected into spleens of mice lacking TLR4 function. Thus, the ECM may limit TLR4 signaling in vivo, and cleavage of ECM can trigger TLR4 signaling in living tissues.

[3] = test system: TLR4; experiment: Serum TNF-α after i.p. injection in mice, ELISA
Method: Cytokine Quantification. Age-matched female mice were injected in the peritoneum with 0.5 U of elastase, 5 mg of HS, 200 U of heparin, 150 μg of CpG DNA, or PBS with a total volume of 250 μl. One hour and 3 hours after injection, 100-μl blood samples were collected from the tail vein. Cell supernatants and serum samples were immediately frozen at −20° C. until analysis. Concentrations of TNF-α were analyzed by enzyme-linked sandwich ELISA (R&D Systems, Minneapolis, Minn.).

[4] = TLR4-mutant mice, up to 3 hours
[5] = wild-type mice, 1 hour after treatment

Substance	Death / SIRS in shock model [1]	Percent death after injection of elastase in SIRS shock model, TLR4 Mutant (%) ([1]; TLR4 mutant mice)	Percent death after injection of elastase in SIRS shock model, TLR4 Wild Type (%) ([1]; TLR4 wild type mice)	Death in shock model [1]	Expression of CD86 in the spleen [2]	Increase in CD86 in the spleen ([2]; mice lacking TLR4 function)	Serum TNF-α [3, 4]	Serum TNF-α [3, 5]
elastase: pancreatic elastase (Calbiochem; type IV porcine pancreatic elastase, Sigma-Aldrich), protease that cleaves ECM proteins	no TLR4 mutant mice died	0	50	Fifty percent	profoundly increased	not observed	not detectable	high serum levels of TNF-α
heparan sulfate [HS]	no TLR4-mutant mice injected with HS died	–	–	eighty percent	modestly increased	–	not detectable	high serum levels of TNF-α
lipopolysaccharide [LPS]	–	–	–	died	modestly increased	–	–	–
